{"source": "patent US20240148714A1", "about": "“Triple Negative Breast Cancer Treatment Method” (Exelixis, Inc., priority 2016, published 2024)", "key": {"plasma biomarkers": {"tested_on": "plasma biomarkers", "assay": "Circulating biomarker assays: plasma proteins (multiplex arrays, ELISA)", "format": "in vivo, human", "set-up": "plasma VEGF R2, Median / plasma bFGF, Median / plasma sPLT-3, Median / plasma VEGF, Median / plasma VEGF-D, Median / plasma sMET, Median: unit not given beside the values", "excerpt": "Circulating Biomarker Assays: Potential biomarkers of cabozantinib activity were identified by measuring plasma proteins at baseline, on day 8 of therapy, on day 1 of each cycle of therapy, and, if available, at the time of progression. Eight milliliters of blood was collected in purple top (plasma EDTA) vacutainers and shipped on wet ice to a Clinical Laboratory Improvement Amendments-certified core in the Steele Laboratories (Massachusetts General Hospital), where whole blood was separated by centrifugation into cellular fraction and plasma. The fraction of stem/progenitor cell, lymphocyte, and myeloid populations of total circulating mononuclear cells were counted by flow cytometry using a LSR-II cytometer and FACSDiva software in fresh blood samples using the following markers: CD3, CD4, CD8, CD14, CD25, CD34, CD45, CD56, CD127, and CD133 (Becton Dickinson, Franklin Lakes, NJ, www.bd.com). Plasma was prepared in the standard fashion and stored at −78° C. until collection and analysis of all samples. The biomarkers measured included VEGF, placental growth factor (PlGF), VEGF-C, VEGF-D, soluble VEGFR1 (sVEGFR1), basic fibroblast growth factor (bFGF), and sTie-2 (using a 7-plex Growth Factor array) and granulocyte-macrophage colony stimulating factor (GM-CSF), interferon gamma (IFN-g), tumor necrosis factor alpha (TNF-a), and interleukin-1beta (IL-1b), IL-2, IL-6, IL-8, IL-10, and IL-12 heterodimer p70 (using a 9-plex Inflammatory Factor array; both Meso Scale Discovery, Gaithersburg, MD, www.mesoscale.com); and HGF, sMET, carbonic anhydrase IX (CAIX), stromal cell-derived factor 1 a (SDF1a), and sVEGFR2 by single analyte enzyme-linked immunosorbent assay (R&D Systems, Minneapolis, MN, www.rndsystems.com). Descriptive statistics were used to summarize biomarker values at protocol-specific time points. […] The Wilcoxon signed rank test assessed biomarker change from day 1 to 8. Mixed effects linear models assessed the change in biomarker values at days 1, 8, 22, 43, and 64; values beyond day 64 were not analyzed because of the small number of patients still on protocol. In the mixed effects linear model, the fixed effects were times of assessment, and patients were entered as a random effect. Logarithmic transformation was used to achieve normality, when applicable. Baseline biomarkers were stratified by using the median values for the entire cohort. The log-rank test compared PFS among patients with low or high baseline sMET. All tests were conducted with two-sided […]. The Benjamini-Hochberg procedure was used to adjust p values to control the false discovery rate from evaluating multiple circulating biomarkers."}, "[1]": {"assay": "Participant-reported pain questionnaire and analgesic use", "format": "in vivo, human", "description": "Study Design and Treatment: As indicated, this was a single-arm, two-stage phase II study assessing the efficacy of cabozantinib monotherapy in patients with mTNBC. Treatment consisted of oral dosing of cabozantinib at 60 mg daily over a 21-day cycle. Patients underwent radiographic restaging at 6 weeks and every 9 weeks thereafter. Patients with complete or partial RECIST responses continued to receive study treatment, whereas those with progressive disease were taken off study. Dose reductions for toxicity occurred if patients experienced grade 3 or 4 neutropenia or thrombocytopenia, or nonhematologic adverse events. From the starting dose of 60 mg daily, doses were reduced as needed to 40 and 20 mg daily. For the purposes of determining the effect of cabozantinib treatment on pain and analgesic medication use, pain was assessed by a participant-reported questionnaire, and daily analgesic medication usage was recorded. These were completed at baseline and during week 3, 6, and every 6 weeks thereafter until the date of the participant's last follow-up visit."}, "[2]": {"conditions": "baseline to day 22, maintained at day 64"}}, "note": "“Also recorded” adds a separate entry of the source.", "data": [{"smiles": "COc1cc2nccc(Oc3ccc(NC(=O)C4(C(=O)Nc5ccc(F)cc5)CC4)cc3)c2cc1OC", "note": "[cabozantinib]", "values": [{"measurement": "plasma VEGF R2, Median", "setting": "plasma biomarkers; Day 1 (baseline)", "result": 8.872}, {"measurement": "plasma VEGF, Median", "setting": "plasma biomarkers; Day 1 (baseline)", "result": 98}, {"measurement": "plasma VEGF-D, Median", "setting": "plasma biomarkers; Day 1 (baseline)", "result": 1.062}, {"measurement": "plasma bFGF, Median", "setting": "plasma biomarkers; Day 1 (baseline)", "result": 39}, {"measurement": "plasma sMET, Median", "setting": "plasma biomarkers; Day 1 (baseline)", "result": 795}, {"measurement": "plasma sPLT-3, Median", "setting": "plasma biomarkers; Day 1 (baseline)", "result": 1.24}, {"measurement": "plasma VEGF R2, Median", "setting": "plasma biomarkers; Day 8", "result": 8.475}, {"measurement": "plasma VEGF, Median", "setting": "plasma biomarkers; Day 8", "result": 188}, {"measurement": "plasma VEGF-D, Median", "setting": "plasma biomarkers; Day 8", "result": 1.419}, {"measurement": "plasma bFGF, Median", "setting": "plasma biomarkers; Day 8", "result": 41}, {"measurement": "plasma sMET, Median", "setting": "plasma biomarkers; Day 8", "result": 890}, {"measurement": "plasma sPLT-3, Median", "setting": "plasma biomarkers; Day 8", "result": 50}, {"measurement": "plasma VEGF R2, Median", "setting": "plasma biomarkers; Day 22", "result": 6.726}, {"measurement": "plasma VEGF, Median", "setting": "plasma biomarkers; Day 22", "result": 206}, {"measurement": "plasma VEGF-D, Median", "setting": "plasma biomarkers; Day 22", "result": 1.582}, {"measurement": "plasma bFGF, Median", "setting": "plasma biomarkers; Day 22", "result": 28}, {"measurement": "plasma sMET, Median", "setting": "plasma biomarkers; Day 22", "result": 902}, {"measurement": "plasma sPLT-3, Median", "setting": "plasma biomarkers; Day 22", "result": 90}, {"measurement": "plasma VEGF R2, Median", "setting": "plasma biomarkers; Day 43", "result": 5.812}, {"measurement": "plasma VEGF, Median", "setting": "plasma biomarkers; Day 43", "result": 206}, {"measurement": "plasma VEGF-D, Median", "setting": "plasma biomarkers; Day 43", "result": 1.437}, {"measurement": "plasma bFGF, Median", "setting": "plasma biomarkers; Day 43", "result": 33}, {"measurement": "plasma sMET, Median", "setting": "plasma biomarkers; Day 43", "result": 903}, {"measurement": "plasma sPLT-3, Median", "setting": "plasma biomarkers; Day 43", "result": 124}, {"measurement": "plasma VEGF R2, Median", "setting": "plasma biomarkers; Day 64", "result": 5.968}, {"measurement": "plasma VEGF-D, Median", "setting": "plasma biomarkers; Day 64", "result": 1.429}, {"measurement": "plasma bFGF, Median", "setting": "plasma biomarkers; Day 64", "result": 21}, {"measurement": "plasma sMET, Median", "setting": "plasma biomarkers; Day 64", "result": 923}, {"measurement": "plasma sPLT-3, Median", "setting": "plasma biomarkers; Day 64", "result": 87}, {"measurement": "change in plasma PIGF", "setting": "plasma biomarkers; [2]", "result": "increases"}, {"measurement": "change in plasma VEGF", "setting": "plasma biomarkers; [2]", "result": "increases"}, {"measurement": "change in plasma VEGF-D", "setting": "plasma biomarkers; [2]", "result": "increases"}, {"measurement": "change in plasma HGF", "setting": "plasma biomarkers; day 8", "result": "initially decreased"}, {"measurement": "change in plasma SDF1a", "setting": "plasma biomarkers; day 22", "result": "transiently increased; also recorded: increases"}, {"measurement": "change in plasma HGF", "setting": "plasma biomarkers; day 64", "result": "increased"}, {"measurement": "change in plasma CAIX", "setting": "plasma biomarkers; days 43 and 64", "result": "increases"}, {"measurement": "change in plasma sVEGFR2", "setting": "plasma biomarkers; days 43 and 64", "result": "significantly decreased"}, {"measurement": "change in plasma bFGF over time", "setting": "plasma biomarkers; in vivo", "result": "did not significantly change"}, {"measurement": "change in plasma sMET over time", "setting": "plasma biomarkers; in vivo", "result": "did not significantly change"}, {"measurement": "change in plasma sTIE-2 over time", "setting": "plasma biomarkers; in vivo", "result": "did not significantly change"}, {"measurement": "change in plasma sVEGFR1 over time", "setting": "plasma biomarkers; in vivo", "result": "did not significantly change"}, {"measurement": "patients reporting a decrease in pain since baseline", "setting": "[1]; of 21 patients with pain at entry who completed a survey", "result": 52, "unit": "%"}, {"measurement": "patients with decreased pain who discontinued pain medications", "setting": "[1]; of the eleven with decreased pain", "result": 10, "unit": "patients"}]}]}
